Reference: patent EP0277910A1, “1-Methyl-15-alpha-(1,2-dialkanoyloxyalkyl)androsta-1,4-diene-3-17-diones, process for their preparation and pharmaceutical compositions containing them” (SCHERING AKTIENGESELLSCHAFT, priority 1987, dated 1988)

Target: T1, Aromatase (Rattus norvegicus, UniProt P22443)
T1 construct: Infantile weibliche Ratten reagieren auf PMSG (Pregnant Mare's Serum Gonadotropin)-Behandlung mit einheitlich erhöhter Steroidsynthese; from tissue; host or cells: living infantile female rats pretreated with PMSG
T1 sequence (P22443 1-508): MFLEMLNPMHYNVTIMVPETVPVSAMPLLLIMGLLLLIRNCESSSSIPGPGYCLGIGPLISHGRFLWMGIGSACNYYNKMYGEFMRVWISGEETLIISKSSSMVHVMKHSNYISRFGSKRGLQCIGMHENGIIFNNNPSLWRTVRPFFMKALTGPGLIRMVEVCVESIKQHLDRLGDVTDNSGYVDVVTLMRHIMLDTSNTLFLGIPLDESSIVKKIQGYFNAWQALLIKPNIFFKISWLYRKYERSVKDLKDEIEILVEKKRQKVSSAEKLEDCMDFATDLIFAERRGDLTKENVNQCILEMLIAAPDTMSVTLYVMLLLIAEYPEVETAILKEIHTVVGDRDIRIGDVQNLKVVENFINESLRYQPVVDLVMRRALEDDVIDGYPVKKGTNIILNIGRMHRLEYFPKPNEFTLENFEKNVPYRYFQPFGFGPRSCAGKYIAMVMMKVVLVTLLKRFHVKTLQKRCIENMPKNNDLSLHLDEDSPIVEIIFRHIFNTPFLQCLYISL
Test: PMSG test: effect on serum oestradiol concentration in PMSG-pretreated infantile female rats
Assay type: in vivo, Ratte
Conditions: for Östradiol-Konzentration: peripheral serum, PMSG-pretreated rat, 24 h after last PMSG, mean ± SD; for Serum-östradiolkonzentration: in comparison with A and B
Procedure: Infantile weibliche Ratten reagieren auf PMSG (Pregnant Mare's Serum Gonadotropin)-Behandlung mit einheitlich erhöhter Steroidsynthese. Die Aromataseaktivität kann durch die Beeinflussung der PMSG-stimulierten Östrogenbildung gemessen werden.
Im sogenannten PMSG-Test werden 21 tage alte weibliche Ratten alle 2 Tage insgesamt 7 mal mit je 100 I.U. PMSG subkutan vorbehandelt. 1 Stunde vor und 8 Stunden nach der letzten PMSG-Applikation(d₁₂) erhalten die Tiere die Testsubstanz in 0,1 ml Benzylbenzoat/Rizinusöl (1+9) durch subkutane Injektion. Die Kontrolltiere erhalten nur das Vehikel. 24 Stunden nach der letzten PMSG-Applikation werden die Tiere getötet. Im serum wird Östradiol radioimmunologisch geprüft. Für jede Gruppe von Tieren wird der Mittelwert der Östradiolkonzentration in nMol/l mit der Standardabweichung errechnet. Die Signifikanzen der Unterschiede zur Kontrollgruppe werden durch die Varianzanalyse geprüft. Zur Ermittlung der relativen Wirkungsstärke der zu testenden Substanz im Vergleich zu der Standardsubstanz wird die Regressions- und Kovarianzanalyse durchgeführt. Ferner wird die prozentuale Hemmung gegen die PMSG-Kontrolle berechnet.

Row | SMILES | Östradiol-Konzentration (Dosis 0,1 mg/Tier 2 x s.c.) | Östradiol-Konzentration (Dosis 0,3 mg/Tier 2 x s.c.) | Östradiol-Konzentration (Dosis 1,0 mg/Tier 2 x s.c.) | Serum-östradiolkonzentration
1 | CC[C@H](OC(C)=O)[C@H](OC(C)=O)[C@H]1CC(=O)[C@@]2(C)CC[C@H]3[C@@H](CCC4=CC(=O)C=C(C)[C@@]43C)[C@H]12 [D, 15α-(1R,2S-Diacetoxybutyl)-1-methyl-androsta-1,4-dien-3,17-dion] | 0,54±0,11 nMol/l | 0,88±0,15 nMol/l | 0,41±0,09 nMol/l | stärker gesenkt
2 | CC(=O)O[C@H]([C@H]1CC(=O)[C@@]2(C)CC[C@H]3[C@@H](CCC4=CC(=O)C=C(C)[C@@]43C)[C@H]12)[C@H](C)OC(C)=O [C, 15α-(1R,2S-Diacetoxypropyl)-1-methyl-androsta-1,4-dien-3,17-dion] | 1,30±0,37 nMol/l | 0,68±0,32 nMol/l | 0,24±0,10 nMol/l | stärker gesenkt
3 | CC(=O)OCC[C@H]1CC(=O)[C@@]2(C)CC[C@H]3[C@@H](CCC4=CC(=O)C=C(C)[C@@]43C)[C@H]12 [B, 15α-(Acetoxyethyl)-1-methyl-androsta-1,4-dien-3,17-dion, reference compound] | 2,11±0,39 nMol/l | 0,62±0,13 nMol/l | 0,54±0,07 nMol/l | –
4 | C[C@]12CCC(=O)C(O)=C1CC[C@@H]1[C@@H]2CC[C@]2(C)C(=O)CC[C@@H]12 [A, 4-Hydroxy-4-androsten-3,17-dion, reference compound] | 3,98±1,12 nMol/l | 3,84±0,84 nMol/l | 1,94±0,62 nMol/l | –
